In general, melting point refers to the temperature of the solid-liquid transition. As a reminder, the inhibition is how much of the control response was suppressed. In general, IC50 refers to the concentration at which inhibition is half-maximal.

The target in data set [1] is T1, human vasopressin V1a receptor subtype (Homo sapiens, UniProt P37288).
T1 construct: host or cells: CHO cells, stably transfected (pZeoSV vector for the Thibonnier line); membranes
Put plainly: Vasopressin binding in CHO cell membranes expressing human vasopressin V1a subtype receptors ([3H]Manning ligand). An excerpt: Vasopressin Binding in Chinese Hamster Ovary Cell Membranes Expressing Human Vasopressin V1a Subtype Receptors
Chinese hamster ovary cells (CHO cells) stably transfected with the human vasopressin V1a subtype receptors were either obtained from Biosignal Inc., 1744 rue Williams, Montreal, Quebec, Canada or obtained from M. Thibonnier, Case Western Reserve University School of Medicine, Cleveland, Ohio.
A. Passaging and Amplification of Cells:
CHO cells transfected with the human vasopressin V1a subtype receptors obtained from M. Thibonnier (pZeoSV vector) are allowed to grow to confluency (approx. >90%) in T-150 flasks under sterile conditions, in a cell culture medium of F-12 Nutrient Mixture (HAM) with L-glutamine (Gibco Cat. #11765-054) containing 15 mM HEPES (Gibco Cat. #15630-080), 1% antibiotic/antimycotic (add 5 mL 100×, Gibco Cat. #15240-062 per 500 mL F-12), 250 μg/mL Zeocin (add 1.25 mL of 100 mg/mL Invitrogen R-250-01 per 500 mL F-12) and 10% Fetal Bovine Serum (Qualified, heat inactivated, Gibco Cat. #16140-063). The medium is removed by aspiration and the cells are washed with 10 mL of Hank's Balanced Salt solution (Gibco Cat. #14175-095). The salt solution is removed by aspiration and the cells are trypsinized with 5 mL of trypsin-EDTA (0.05% trypsin, 0.53 mM EDTA-4Na, Gibco Cat. #25300-070) for 1 min. The trypsin is removed by aspiration and the cells dislodged by tapping. Cell Culture medium (eg, 30 mL for 1:30 split) is immediately added and mixed well to inactivate trypsin. 1 mL of detached cells is added to new culture flasks containing fresh cell culture medium (eg, into 25 mL per T-150 flask), and mixed gently. The cells are incubated at 37° C. in 5% CO2. The medium is changed at 3 to 4 days interval (or as appropriate). The cells grow to confluency (approx. >75%-95%) within 7-8 days. All steps are done under sterile conditions.
The cells are washed twice gently with Hank's Balanced Salt solution (e.g,. use 10 mL per T-150 flask). The excess is removed and the cells are bathed for 15-30 min. in an enzyme-free Cell Dissociation Buffer (e.g. use 8 mL Hank's Based, Gibco Cat. #13150-016 per T-150 flask) until the cells are loosened. The contents are transferred to centrifuge tubes (50 mL size) kept in ice bath. All subsequent steps are done at 4° C. The tubes are centrifuged at 300×g for 15 min (1380 rpm on SORVAL, Model RT6000D, using rotor for 50 mL tubes). The supernatant is discarded and the cells suspended in homogeneizing buffer(10 mM Tris-HCl containing 0.25 M sucrose and 1 mM EDTA, pH 7.4) ensuring that the volume of the buffer is about ten times the volume of the cell pellet. The cells are pooled into a centrifuge tube (50 mL) and homogenized with Polytron at setting 6 for 10 sec. The homogenate is transferred into a Potter-Elvjehm homogenizer and homogenized with 3 strokes. The homogenate is centrifuged at 1500×g for 10 min at 4° C. (3100 rpm using SORVAL, model RT6000D, using rotor for 50 mL tubes). The pellet is discarded. The supernatant is centrifuged at 100,000×g for 60 min. at 4° C. (Beckman L8-80M ultracentrifuge; spin at 37,500 rpm with rotor type 70 Ti for 50 mL tubes; 38,000 rpm with type 80Ti for 15 mL tubes; or 35,800 rpm with rotor type 45Ti). The supemantant is discarded and the pellet suspended in 3 to 4 mL of Tris buffer (50 mM TRIS-HCl, pH 7.4). The protein content is estimated by the Bradford or Lowry method. The volume of the membrane suspension is adjusted with the membrane buffer (50 mM Tris-HCl containing 0.1% BSA and 0.1 mM PMSF) to give 3.0 mg/mL (or as appropriate) of protein. The membranes are aliquoted and stored at −70° C.
C. Radioligand Binding Assay: […]

T1 sequence (P37288 whole entry): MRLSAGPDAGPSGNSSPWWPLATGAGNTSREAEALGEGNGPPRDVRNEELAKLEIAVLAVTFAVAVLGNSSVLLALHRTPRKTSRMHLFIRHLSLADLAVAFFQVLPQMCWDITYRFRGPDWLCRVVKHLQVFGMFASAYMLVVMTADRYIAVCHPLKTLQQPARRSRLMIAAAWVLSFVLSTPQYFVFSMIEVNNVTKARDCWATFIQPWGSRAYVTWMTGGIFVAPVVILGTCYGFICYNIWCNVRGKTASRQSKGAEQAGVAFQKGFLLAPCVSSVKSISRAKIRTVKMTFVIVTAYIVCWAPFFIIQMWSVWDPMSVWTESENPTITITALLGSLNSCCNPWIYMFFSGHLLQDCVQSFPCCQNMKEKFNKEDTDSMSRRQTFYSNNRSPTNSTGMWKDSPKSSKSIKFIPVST

Regarding `Cc1cc(C(=O)N2Cc3ccc(C(=O)N(C)C[C@@H]4OC(=O)O[C@H]4[C@H](O)[C@H]4COC(=O)O4)n3Cc3ccccc32)ccc1C1=CCCCC1` [Example 7, 10-(4-Cyclohex-1-en-1-yl-3-methylbenzoyl)-N-[((4S,5S)-5-{(R)-hydroxy[(4R)-2-oxo-1,3-dioxolan-4-yl]methyl}-2-oxo-1,3-dioxolan-4-yl)methyl]-N-methyl-10,11-dihydro-5H-pyrrolo[2,1-c][1,4]benzodiazepine-3-carboxamide], the melting point was in the range of 162 to 168 °C. Besides, the inhibition at 0.1 µM in data set [1] (100 nM, value without parentheses) came out at 62%.
Compound `COc1cc(C2=CCCCC2)c(Cl)cc1C(=O)N1Cc2ccc(C(=O)N(C)CC(O)CO)n2Cc2ccccc21` (stereo not shown) [Example 4, 10-(5-Chloro-4-cyclohex-1-en-1-yl-2-methoxybenzoyl)-N-(2,3-dihydroxypropyl)-N-methyl-10,11-dihydro-5H-pyrrolo[2,1-c][1,4]benzodiazepine-3-carboxamide] returned a melting point of 155 to 157 °C. Also, in data set [1] (value in parentheses), the IC50 is 613 nM.

For the origin of these results see patent publication US6977254B2, “Hydroxy cyclohexenyl phenyl carboxamides tocolytic oxytocin receptor antagonists” (Wyeth, priority 2001, dated 2005).
